In patent publication US10774064B2 (Cadent Therapeutics, Inc., priority 2016, dated 2020) one finds SC100 data, which are given here for 34 molecules.

The assay concerns the target T1, small-conductance Ca2+-activated K+ channels (SK channels, subtype 2) (Homo sapiens, UniProt Q9H2S1).
T1 construct: expressed in transfected cells; host or cells: HEK293
The assay can be described thus: whole-cell patch-clamp of ionic current through SK2 channels in HEK293 cells (SC100). The conditions noted are these: concentration that increases the basal current by 100%; HEK293 cells expressing SK2 channels. It is filed as cell-based. The method, then:
The biological activity was determined as follows. The ionic current through small-conductance Ca^2+-activated K^+ channels (SK channels, subtype 2) was measured using the whole-cell configuration of the patch-clamp technique in a patch-clamp set-up using HEK293 tissue culture cells expressing SK2 channels as described in Hougaard et al., British Journal of Pharmacology 151, 655-665, May 8, 2007, the entire teachings of which are incorporated herein by reference. In one aspect, a compound is defined to be an SK PAM if the compound increases current in this assay, for example, if the SC100 value of the compound is less than or equal to 10 μM as determined by this assay. The SC100 value is defined to be the concentration of compound that increases the basal current by 100%.

With `Cc1cc(C)n(-c2cccc(NC3CCC(F)(F)CC3)n2)n1` [Compound 154, N-(4,4-difluorocyclohexyl)-6-(3,5-dimethyl-1H-pyrazol-1-yl)pyridin-2-amine], the SC100 entry is “+ (+ means >1 uM)”.

As for `Cc1ccn(-c2nc(NC3CCC(F)(F)CC3)cc(N3CC4C(N)C4C3)n2)n1` (stereo not shown) [Compound 155, 3-(6-((4,4-difluorocyclohexyl)amino)-2-(3-methyl-1H-pyrazol-1-yl)pyrimidin-4-yl)-3-azabicyclo[3.1.0] hexan-6-amine], the SC100 entry is on record as “+ (+ means >1 uM)”.

Take `Cc1ccn(-c2nc(NC3CCC(F)(F)CC3)cc(NC3CC(C)(C)C3)n2)n1` [Compound 156, N4-(4,4-difluorocyclohexyl)-N6-(3,3-dimethylcyclobutyl)-2-(3-methyl-1H-pyrazol-1-yl)pyrimidine-4,6-diamine]: the SC100 result is reported as “++ (++ means 200 nM-1000 nM)”.

On to `Cc1ccn(-c2nc(NCC3(N(C)C)CCC3)cc(NC3CCC(F)(F)CC3)n2)n1` [Compound 157, N4-(4,4-difluorocyclohexyl)-N6-((1-(dimethylamino)cyclobutyl)methyl)-2-(3-methyl-1H-pyrazol-1-yl)pyrimidine-4,6-diamine], for which the SC100 result is “++ (++ means 200 nM-1000 nM)”.

For the molecule `CCN1CCCCC(Nc2cc(NC3CCC(F)(F)CC3)nc(-n3ccc(C)n3)n2)C1` (stereo not shown) [Compound 158, N4-(4,4-difluorocyclohexyl)-N6-(1-ethylazepan-3-yl)-2-(3-methyl-1H-pyrazol-1-yl)pyrimidine-4,6-diamine], the SC100 result is “++ (++ means 200 nM-1000 nM)”.

For `Cc1cc(NC2CCC(F)(F)CC2)nc(-n2nc(C)cc2C)c1` [Compound 159, N-(4,4-difluorocyclohexyl)-6-(3,5-dimethyl-1H-pyrazol-1-yl)-4-methylpyridin-2-amine], the SC100 entry is listed as “++ (++ means 200 nM-1000 nM)”.

Regarding `CCN(c1nc(C)cc(-n2nc(C)cc2C)n1)C1CCC(F)(F)CC1` [Compound 160, N-(4,4-difluorocyclohexyl)-4-(3,5-dimethyl-1H-pyrazol-1-yl)-N-ethyl-6-methylpyrimidin-2-amine], the SC100 result is listed as “+ (+ means >1 uM)”.

Turning to `CCN(c1cc(C)nc(-n2nc(C)cc2C)n1)C1CCC(F)(F)CC1` [Compound 161, N-(4,4-difluorocyclohexyl)-2-(3,5-dimethyl-1H-pyrazol-1-yl)-N-ethyl-6-methylpyrimidin-4-amine], the SC100 entry is “+ (+ means >1 uM)”.

As for `Cc1cc(C)n(-c2nc(NC3CCC(F)(F)CC3)cc(C(F)(F)F)n2)n1` [Compound 162, N-(4,4-difluorocyclohexyl)-2-(3,5-dimethyl-1H-pyrazol-1-yl)-6-(trifluoromethyl)pyrimidin-4-amine], the SC100 result was “++ (++ means 200 nM-1000 nM)”.

As for `Cc1cc(C)n(-c2nccc(NC3CCC(F)(F)CC3)n2)n1` [Compound 163, N-(4,4-difluorocyclohexyl)-2-(3,5-dimethyl-1H-pyrazol-1-yl)pyrimidin-4-amine], the SC100 entry is given as “+ (+ means >1 uM)”.

For the molecule `Cc1cc(C)n(-c2nc(CF)cc(NC3CCC(F)(F)CC3)n2)n1` [Compound 165, N-(4,4-difluorocyclohexyl)-2-(3,5-dimethyl-1H-pyrazol-1-yl)-6-(fluoromethyl)pyrimidin-4-amine], the SC100 entry is “+ (+ means >1 uM)”.

Regarding `Cc1cc(C)n(-c2cccc(N(C)C3CCC(F)(F)CC3)n2)n1` [Compound 166, N-(4,4-difluorocyclohexyl)-6-(3,5-dimethyl-1H-pyrazol-1-yl)-N-methylpyridin-2-amine], the SC100 entry is given as “+ (+ means >1 uM)”.

`Cc1cc(C)n(-c2nc(NC3CCC(F)(F)C3)cc(C(F)(F)F)n2)n1` (stereo not shown) [Compound 167, N-(3,3-difluorocyclopentyl)-2-(3,5-dimethyl-1H-pyrazol-1-yl)-6-(trifluoromethyl)pyrimidin-4-amine]: the SC100 result is given as “+ (+ means >1 uM)”.

In the case of `Cc1cc(C)n(-c2nc(NC3CCC(F)(F)C3)cc(C(F)F)n2)n1` (stereo not shown) [Compound 168, N-(3,3-difluorocyclopentyl)-6-(difluoromethyl)-2-(3,5-dimethyl-1H-pyrazol-1-yl)pyrimidin-4-amine], the SC100 entry is recorded as “+ (+ means >1 uM)”.

As to `CCc1cc(-n2nc(C)cc2C)nc(NC2CCC(F)(F)CC2)n1` [Compound 169, N-(4,4-difluorocyclohexyl)-4-(3,5-dimethyl-1H-pyrazol-1-yl)-6-ethylpyrimidin-2-amine], the SC100 entry was “++ (++ means 200 nM-1000 nM)”.

On to `Cc1cc(C)n(-c2cc(C(F)(F)F)cc(NC3CCC(F)(F)CC3)n2)n1` [Compound 170, N-(4,4-difluorocyclohexyl)-6-(3,5-dimethyl-1H-pyrazol-1-yl)-4-(trifluoromethyl)pyridin-2-amine], for which the SC100 entry is “++ (++ means 200 nM-1000 nM)”.

Regarding `CCc1cc(NC2CCC(F)(F)CC2)nc(-n2nc(C)cc2C)n1` [Compound 171, N-(4,4-difluorocyclohexyl)-2-(3,5-dimethyl-1H-pyrazol-1-yl)-6-ethylpyrimidin-4-amine], the SC100 result is “++ (++ means 200 nM-1000 nM)”.

For `Cc1cc(NC2CCC(F)(F)C2)nc(-n2nc(C)cc2C)n1` (stereo not shown) [Compound 172], the SC100 entry is “+ (+ means >1 uM)”.

Consider `Cc1cc(C)n(-c2cc(C(F)F)nc(NC3CCC(F)(F)CC3)n2)n1` [Compound 173], for which the SC100 result was “++ (++ means 200 nM-1000 nM)”.

As to `Cc1cc(C)n(-c2cc(C#N)cc(NC3CCC(F)(F)CC3)n2)n1` [Compound 174, 2-((4,4-difluorocyclohexyl)amino)-6-(3,5-dimethyl-1H-pyrazol-1-yl)isonicotinonitrile], the SC100 entry is “++ (++ means 200 nM-1000 nM)”.

Take `Cc1cc(C)n(-c2cc(C(N)=O)cc(NC3CCC(F)(F)CC3)n2)n1` [Compound 175, 2-((4,4-difluorocyclohexyl)amino)-6-(3,5-dimethyl-1H-pyrazol-1-yl)isonicotinamide]: the SC100 result is “++ (++ means 200 nM-1000 nM)”.

As to `Cc1cc(C)n(-c2nc(CN3CCOCC3)cc(NC3CCC(F)(F)CC3)n2)n1` [Compound 176, N-(4,4-difluorocyclohexyl)-2-(3,5-dimethyl-1H-pyrazol-1-yl)-6-(morpholinomethyl)pyrimidin-4-amine], the SC100 result is recorded as “+ (+ means >1 uM)”.

On to `Cc1cc(C)n(-c2nc(CN(C)C)cc(NC3CCC(F)(F)CC3)n2)n1` [Compound 177, N-(4,4-difluorocyclohexyl)-2-(3,5-dimethyl-1H-pyrazol-1-yl)-6-((dimethylamino)methyl)pyrimidin-4-amine], for which the SC100 result was “+ (+ means >1 uM)”.

As for `Cc1cc(C)n(-c2nc(CN3CCN(C)CC3)cc(NC3CCC(F)(F)CC3)n2)n1` [Compound 178, N-(4,4-difluorocyclohexyl)-2-(3,5-dimethyl-1H-pyrazol-1-yl)-6-((4-methylpiperazin-1-yl)methyl)pyrimidin-4-amine], the SC100 result is recorded as “+ (+ means >1 uM)”.

With `Cc1ccn(-c2cc(Cl)cc(NC3CCC(F)(F)CC3)n2)n1` [Compound 179, 4-chloro-N-(4,4-difluorocyclohexyl)-6-(3-methyl-1H-pyrazol-1-yl)pyridin-2-amine], the SC100 result is “++ (++ means 200 nM-1000 nM)”.

In the case of `Cc1cc(NC2CCC(C(F)(F)F)CC2)nc(-n2ccc(C)n2)c1` (stereo not shown) [Compound 180, 4-methyl-6-(3-methyl-1H-pyrazol-1-yl)-N-(4-(trifluoromethyl)cyclohexyl)pyridin-2-amine], the SC100 result is reported as “+ (+ means >1 uM)”.

Regarding `Cc1cc(C)n(-c2cc(C(F)F)nc(NC3CCC(F)(F)C3)n2)n1` (stereo not shown) [Compound 181, N-(3,3-difluorocyclopentyl)-4-(difluoromethyl)-6-(3,5-dimethyl-1H-pyrazol-1-yl)pyrimidin-2-amine], the SC100 result is on record as “+ (+ means >1 uM)”.

With `Cc1cc(C)n(-c2nc(NC3CCC(F)(F)C3)cc(C(N)=O)n2)n1` (stereo not shown) [Compound 183, 6-((3,3-difluorocyclopentyl)amino)-2-(3,5-dimethyl-1H-pyrazol-1-yl)pyrimidine-4-carboxamide], the SC100 result is given as “+ (+ means >1 uM)”.

On to `Cc1cc(C)n(-c2nc(C#N)cc(NC3CCC(F)(F)C3)n2)n1` (stereo not shown) [Compound 184, 6-((3,3-difluorocyclopentyl)amino)-2-(3,5-dimethyl-1H-pyrazol-1-yl)pyrimidine-4-carbonitrile], for which the SC100 entry is recorded as “+ (+ means >1 uM)”.

Turning to `Cc1cc(C)n(-c2cc(CO)cc(NC3CCC(F)(F)CC3)n2)n1` [Compound 185, (2-((4,4-difluorocyclohexyl)amino)-6-(3,5-dimethyl-1H-pyrazol-1-yl)pyridin-4-yl)methanol], the SC100 result was “++ (++ means 200 nM-1000 nM)”.

As for `Cc1cc(C)n(-c2nc(NC3CCC(F)(F)CC3)cc(C3CC3)n2)n1` [Compound 186, 6-cyclopropyl-N-(4,4-difluorocyclohexyl)-2-(3,5-dimethyl-1H-pyrazol-1-yl)pyrimidin-4-amine], the SC100 entry is listed as “++ (++ means 200 nM-1000 nM)”.

On to `Cc1cc(C)n(-c2nc(NC3CCC(F)(F)CC3)cc(N3CCOCC3)n2)n1` [Compound 187, N-(4,4-difluorocyclohexyl)-2-(3,5-dimethyl-1H-pyrazol-1-yl)-6-morpholinopyrimidin-4-amine], for which the SC100 entry is “++ (++ means 200 nM-1000 nM)”.

In the case of `Cc1cc(C)n(-c2nc(NC3CCC(F)(F)CC3)cc(N3CCOC(C)C3)n2)n1` (stereo not shown) [Compound 188, N-(4,4-difluorocyclohexyl)-2-(3,5-dimethyl-1H-pyrazol-1-yl)-6-(2-methylmorpholino)pyrimidin-4-amine], the SC100 result is “++ (++ means 200 nM-1000 nM)”.

For the molecule `Cc1cc(C)n(-c2nc(NC3CCC(F)(F)CC3)cc(OCc3cnnn3C)n2)n1` [Compound 189, N-(4,4-difluorocyclohexyl)-2-(3,5-dimethyl-1H-pyrazol-1-yl)-6-((1-methyl-1H-1,2,3-triazol-5-yl)methoxy)pyrimidin-4-amine], the SC100 result was “+++ (+++ means <200 nM)”.
